Measured values as given in patent US20240207410A1, “STABILIZED LIQUID COMPOSITIONS COMPRISING A LEVODOPA-TYROSINE CONJUGATE AND USES THEREOF” (NeuroDerm, Ltd., priority 2021, published 2024).
Where a SMILES comes first, the peptide text is derived from it. [ ]: non-standard residue; d: D form. Dopa = N[C@@H](Cc1ccc(O)c(O)c1)C(=O)O

How the values were obtained:
[1] = Long-term stability of 30% LD-Tyrosine/0.75% carbidopa at 2-8° C.; type: physicochemical
Experimental: The formulation also included 0.5% ascorbic acid (Asc), 0.5% N-acetyl cysteine (NAC) and 0.3% Tween 80. The formulation was stored at 2-8° C. for the time indicated, and % recovery and % LD-Tyr-DKP formation (an impurity) were tested. Percent recovery remained high over time. The DKP impurity accumulated over time.

[2] = test system: red blood cells (RBC); test: Blood/plasma ratio, partitioning into red blood cells, minipig blood ex vivo; type: in vitro ADME; details: for KRBC/PL: 50 ng/mL
[3] = Maximal Tolerated Dose (MTD), bolus SC; type: in vivo; details: in vivo; study MTD Exp 001, Rat/SD, bolus SC, 90, 150, 300, 625 mg/kg
Experimental: (§1) In vivo non-clinical safety studies were conducted in both the rat and minipig. Additionally, an assessment of the local infusion site reaction of LD-Tyr was performed as part of a PK study in domestic pigs.

[4] = test system: Rat/SD; test: Maximal Tolerated Dose (MTD), bolus SC; type: in vivo; details: study MTD Exp 001, Rat/SD, bolus SC, highest dose (625 mg/kg), males
Experimental: as §1

[5] = test system: Minipig/Göttingen; test: Local safety, 24-hour SC infusion; type: in vivo
Experimental: as §1

[6] = test system: Pig/domestic; test: Local infusion site reaction as part of a PK study (ND 2-20-102); type: in vivo; details: study ND 2-20-102, 200 mg/mL at 9 mL (1800 mg/day)
Experimental: as §1

[7] = Effect of various additives on stability of a 20% LD-Tyrosine-L-Arginine based formulation; type: physicochemical
[8] = in vivo; details: female, pig, sc, analyte LD-Tyr
Experimental: A series of PK studies was completed in domestic pigs using several LD-Tyr formulations, as detailed in Table 26, and dosing regimens, as detailed in Table 27. The PK profile of LD-Tyr as well as the LD resulting therefrom was determined following 18-hour continuous SC infusion to female domestic pigs. Each formulation was administered at one infusion site per animal using a Crono-ND infusion pump (Canè SpA Medical Technology, Rivoli, Italy) connected to an infusion set (Accu-chek®, FlexLink, Roche).
(§2) Blood samples for the determination of LD-Tyr and LD plasma levels were collected from the pigs at the following timepoints: […]

[9] = PK of high concentration LD-Tyr formulations comprising TRIS, 0.5% CD (Example 15B); type: in vivo, domestic pig; details: female, pig, plasma, sc, analyte LD-Tyr, 18-hour continuous SC infusion
Experimental: A series of PK and local-tox studies was completed in domestic pigs using several high concentration LD-Tyr formulations comprising 0.5% CD and varying amounts of TRIS, as detailed in Table 33, and dosing regimens, as detailed in Table 34. The PK profile of LD-Tyr as well as the LD resulting therefrom was determined following 18-hour continuous SC infusion to female domestic pigs. Each formulation was administered at one infusion site per animal using a Crono-ND infusion pump (Canè SpA Medical Technology, Rivoli, Italy) connected to an infusion set (Accu-chek®, FlexLink, Roche).
as §2

[10] = PK of formulations with varying concentrations of LD-Tyr and CD (Example 16); type: in vivo, domestic pig; details: female, pig, plasma, sc, analyte LD-Tyr, 18-hour continuous SC infusion
Experimental: (§3) A series of PK and local site reaction studies was completed in domestic pigs using several concentrations LD-Tyr formulations comprising varying amounts of CD, as detailed in Table 37, and dosing regimens, as detailed in Table 38. The PK profile of LD-Tyr, as well as the LD resulting therefrom, was determined following 18-hour continuous SC infusion to female domestic pigs. Each formulation was administered at one infusion site per animal using a Crono-ND infusion pump (Canè SpA Medical Technology, Rivoli, Italy) connected to an infusion set (Accu-chek®, FlexLink, Roche).
as §2

[11] = PK following bolus and 2-hr continuous SC administration of 30% LD-Tyr (Example 18); type: in vivo, domestic pig; details: pig; for AUC(0-t) / Cmax / Tmax: female, plasma, sc, analyte LD-Tyr, 30/1 % w/v, bolus and 2-hr continuous SC administration
Experimental: as §3, with “local-tox” for “local site reaction”, “42,” for “37,”, “43. […]” for “38. The PK profile of LD-Tyr, as well as the LD resulting therefrom, was determined following 18-hour continuous SC infusion to female domestic pigs.”
Blood samples for the determination of LD-Tyr and LD plasma levels were collected from the pigs at the following timepoints:
0 (pre-dose), 10 min (end of bolus), 15 min, 30 min, 45 min, 60 min, 75 min, 90 min, 120 min and 240 min following the beginning of the bolus administration.

[12] = LD-Tyr/CD 30/0.5 % w/v, daily dose 2775/37.5 mg, n = 2
[13] = LD-Tyr/CD 37/0.5 % w/v, daily dose 2640/30 mg, n = 3
[14] = LD-Tyr/CD 44/0.5 % w/v, daily dose 2700/45 mg, n = 1
[15] = 2640 mg/day, LD-Tyr/CD 44/1 % w/v, daily dose 2640/60 mg, n = 4
[16] = 2700 mg/day, LD-Tyr/CD 30/0.5 % w/v, daily dose 2700/45 mg, n = 5
[17] = 2700 mg/day, LD-Tyr/CD 30/[…] w/v, daily dose 2700/135 mg, n = 5
[18] = bolus volume 0.7 mL, bolus dose 210/7 mg, daily dose 510/17 mg
[19] = bolus volume 1.2 mL, bolus dose 360/12 mg, daily dose 660/22 mg
[20] = bolus volume 1.7 mL, bolus dose 510/17 mg, daily dose 810/27 mg

In the case of `N[C@@H](Cc1ccc(O)c(O)c1)C(=O)N[C@@H](Cc1ccc(O)cc1)C(=O)O` [LD-Tyr, levodopa-tyrosine (LD-Tyr) conjugate of the formula (II)] (H-[Dopa]-Tyr-OH), the “% DKP” value ([1]; 1 month) is reported as 1.88 % area, the “mg/mL (concentration in formulation)” value ([1]; 1 month) is reported as 295.74 mg/mL and the “% DKP” value ([1]; 1 week) is reported as 0.99 % area. The “mg/mL (concentration in formulation)” value ([1]; 1 week) was 294.13 mg/mL, the “% DKP” value ([1]; 2 months) was 2.60 % area and the “mg/mL (concentration in formulation)” value ([1]; 2 months) was 302.47 mg/mL. The “% DKP” value ([1]; 2 weeks) was 1.19 % area, the “mg/mL (concentration in formulation)” value ([1]; 2 weeks) was 304.25 mg/mL and the “% DKP” value ([1]; 3 months) was 4.04 % area. For the same compound, the “mg/mL (concentration in formulation)” value ([1]; 3 months) was 296.57 mg/mL, the “% DKP” value ([1]; t = 0) was 0.86 % area and the “mg/mL (concentration in formulation)” value ([1]; t = 0) was 297.62 mg/mL. The RBC binding ([2]; minipig blood) was “limited RBC binding”, the KRBC/PL ([2]; minipig blood, after 30 minutes (declined)) was 0.0 and the KRBC/PL ([2]; minipig blood, at 15 and 30 minutes) was 1. The “partition coefficient between RBC and plasma (KRBC/PL)” value ([2]; minipig blood, 50, 150 and 2500 ng/mL) was “below five”, the “KRBC/PL versus time of incubation” value ([2]; minipig blood, two highest concentrations (150 and 2500 ng/mL)) was “increased with the time of incubation” and the MTD [3] was 300 mg/kg. For the same compound, the Mortality [4] was “Mortality (1/4 males)”, the “subchronic/chronic inflammation in the subcutis” value ([5]; study 0NMR6, 120 mg/mL at 4.5 mL (540 mg/day)) was “minimal to mild” and the “tolerability (local effect, cutaneous ulcers)” value (shortened to “tolerability”) ([5]; study 0NMR6, 24-hour SC infusion, 120 mg/mL at 4.5 mL (540 mg/day)) was “well tolerated with no”. For the same compound, the “chronic inflammation in the subcutis” value ([5]; study 0NMR10, 130 mg/mL at 6 mL (780 mg/day)) was “minimal to moderate”, the “tolerability” value ([5]; study 0NMR10, 24-hour SC infusion, 130 mg/mL at 6 mL (780 mg/day)) was “well tolerated with no” and the “tolerability” value ([5]; study E0515, 24-hour SC infusion, 440, 370, 300, and 250 mg/mL (2640, 2775, 2700, and 2250 mg/day)) was “well tolerated with no”. For the same compound, the “subacute inflammation in the subcutis” value [6] was “minimal to mild”, the “solubility of the LD-Tyr (rank order of cosolvents)” value [7] was “DMA>Ethanol>PEG 300” and the Tmax [8] was 10.4 h. For the same compound, the AUC(0-t) [9, 12] was 4800 ng·h/mL, the Cmax [9, 12] was 445 ng/mL and the Tmax [9, 12] was 10 h. The AUC(0-t) [9, 13] was 5600 ng·h/mL, the Cmax [9, 13] was 491 ng/mL and the Tmax [9, 13] was 15 h. It also gave an AUC(0-t) [9, 14] of 534 ng·h/mL, a Cmax [9, 14] of 49.6 ng/mL and a Tmax [9, 14] of 2 h. The AUC(0-t) [10, 15] was 8130 ng·h/mL, the Cmax [10, 15] was 738 ng/mL and the Tmax [10, 15] was 11.6 h. For the same compound, the AUC(0-t) [10, 16] was 5450 ng·h/mL, the Cmax [10, 16] was 453 ng/mL and the Tmax [10, 16] was 8.8 h. The AUC(0-t) [10, 17] was 13500 ng·h/mL, the Cmax [10, 17] was 986 ng/mL and the Tmax [10, 17] was 12.4 h. The AUC(0-t) [11, 18] was 1180 ng·h/mL, the Cmax [11, 18] was 573 ng/mL and the Tmax [11, 18] was 1.3 h. The AUC(0-t) [11, 19] was 1630 ng·h/mL, the Cmax [11, 19] was 933 ng/mL and the Tmax [11, 19] was 0.9 h. It also gave an AUC(0-t) [11, 20] of 2430 ng·h/mL, a Cmax [11, 20] of 1350 ng/mL and a Tmax [11, 20] of 1.2 h. For the same compound, the “systemic exposure to LD versus bolus injection volume” value ([11]; in vivo) was “dose-proportional increase”.
